Legend:
Assay in all cases: relative viability (nuclei count vs DMSO), 5 days (fraction); higher = more cells survive
PC-3 [JPC-3] = system: PC-3 [JPC-3]
Outline: (§1)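 The day after seeding in 1536-well plates, lung cancer cell lines were treated by pin tool with a single drug, or with a fixed anchor-drug dose together with five library-drug doses (not always all listed) in √10 steps. After 5 days, a combined fix-and-stain solution (final 0.05% Triton X-100, 1% formaldehyde, 1 ug/ml Hoechst) was added. Nuclei counted on 4× images gave relative viability as treated counts over vehicle counts, reported as the median of duplicate plates.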

NCI-H1993 = system: NCI-H1993
Outline: as §1

NCI-H1793 = system: NCI-H1793
Outline: as §1

COR-L23 = system: COR-L23
Outline: as §1

NCI-H2170 = system: NCI-H2170
Outline: as §1

NCI-H2228 = system: NCI-H2228
Outline: as §1

NCI-H1792 = system: NCI-H1792
Outline: as §1

SW 1573 = system: SW 1573
Outline: as §1

NCI-H2009 = system: NCI-H2009
Outline: as §1

NCI-H596 = system: NCI-H596
Outline: as §1

HARA = system: HARA
Outline: as §1

SW 900 = system: SW 900
Outline: as §1

EMC-BAC-2 = system: EMC-BAC-2
Outline: as §1

HOP-62 = system: HOP-62
Outline: as §1

SK-MES-1 = system: SK-MES-1
Outline: as §1

SK-LU-1 = system: SK-LU-1
Outline: as §1

LK-2 = system: LK-2
Outline: as §1

NCI-H1944 = system: NCI-H1944
Outline: as §1

NCI-H727 = system: NCI-H727
Outline: as §1

NCI-H3122 = system: NCI-H3122
Outline: as §1

LXF-289 = system: LXF-289
Outline: as §1

A-427 = system: A-427
Outline: as §1

O=C(O)c1ccc(-c2c[nH]c3ncc(-c4ccccc4)cc23)cc1C1CCCC1 + CC(=O)Nc1cccc(-n2c(=O)n(C3CC3)c(=O)c3c(Nc4ccc(I)cc4F)n(C)c(=O)c(C)c32)c1 [Trametinib] (partner 0.02 µM) gave a relative viability (PC-3 [JPC-3]; first compound 0.04 µM) of 0.656, a relative viability (PC-3 [JPC-3]; first compound 0.1265 µM) of 0.756 and a relative viability (PC-3 [JPC-3]; first compound 0.4 µM) of 0.752. The relative viability (PC-3 [JPC-3]; first compound 1.265 µM) was 0.647, the relative viability (NCI-H1993; first compound 0.04 µM) was 0.473 and the relative viability (NCI-H1993; first compound 0.1265 µM) was 0.484. The relative viability (NCI-H1993; first compound 0.4 µM) was 0.42, the relative viability (NCI-H1993; first compound 1.265 µM) was 0.575 and the relative viability (NCI-H1793; first compound 0.04 µM) was 0.407. The relative viability (NCI-H1793; first compound 0.1265 µM) was 0.51, the relative viability (NCI-H1793; first compound 0.4 µM) was 0.497 and the relative viability (NCI-H1793; first compound 1.265 µM) was 0.34. It also gave a relative viability (COR-L23; first compound 0.04 µM) of 0.584, a relative viability (COR-L23; first compound 0.1265 µM) of 0.608 and a relative viability (COR-L23; first compound 0.4 µM) of 0.627. It also gave a relative viability (COR-L23; first compound 1.265 µM) of 0.507, a relative viability (NCI-H2170; first compound 0.04 µM) of 0.899 and a relative viability (NCI-H2170; first compound 0.1265 µM) of 0.925. For the same compound, the relative viability (NCI-H2170; first compound 0.4 µM) was 0.887, the relative viability (NCI-H2170; first compound 1.265 µM) was 0.79 and the relative viability (NCI-H2228; first compound 0.04 µM) was 0.548. It also gave a relative viability (NCI-H2228; first compound 0.1265 µM) of 0.581, a relative viability (NCI-H2228; first compound 0.4 µM) of 0.633 and a relative viability (NCI-H2228; first compound 1.265 µM) of 0.305. It also gave a relative viability (NCI-H1792; first compound 0.04 µM) of 0.375, a relative viability (NCI-H1792; first compound 0.1265 µM) of 0.454 and a relative viability (NCI-H1792; first compound 0.4 µM) of 0.407. It also gave a relative viability (NCI-H1792; first compound 1.265 µM) of 0.392, a relative viability (SW 1573; first compound 0.04 µM) of 0.476 and a relative viability (SW 1573; first compound 0.1265 µM) of 0.584. It also gave a relative viability (SW 1573; first compound 0.4 µM) of 0.439, a relative viability (SW 1573; first compound 1.265 µM) of 0.365 and a relative viability (NCI-H2009; first compound 0.04 µM) of 0.261. For the same compound, the relative viability (NCI-H2009; first compound 0.1265 µM) was 0.311, the relative viability (NCI-H2009; first compound 0.4 µM) was 0.274 and the relative viability (NCI-H2009; first compound 1.265 µM) was 0.224. For the same compound, the relative viability (NCI-H596; first compound 0.04 µM) was 0.726, the relative viability (NCI-H596; first compound 0.1265 µM) was 0.815 and the relative viability (NCI-H596; first compound 0.4 µM) was 0.777. It also gave a relative viability (NCI-H596; first compound 1.265 µM) of 0.802, a relative viability (HARA; first compound 0.04 µM) of 0.692 and a relative viability (HARA; first compound 0.1265 µM) of 0.72. For the same compound, the relative viability (HARA; first compound 0.4 µM) was 0.74, the relative viability (HARA; first compound 1.265 µM) was 0.545 and the relative viability (SW 900; first compound 0.04 µM) was 0.757. For the same compound, the relative viability (SW 900; first compound 0.1265 µM) was 0.711, the relative viability (SW 900; first compound 0.4 µM) was 1.37 and the relative viability (SW 900; first compound 1.265 µM) was 0.454. It also gave a relative viability (EMC-BAC-2; first compound 0.04 µM) of 0.903, a relative viability (EMC-BAC-2; first compound 0.1265 µM) of 0.976 and a relative viability (EMC-BAC-2; first compound 0.4 µM) of 1.05. It also gave a relative viability (EMC-BAC-2; first compound 1.265 µM) of 0.973, a relative viability (HOP-62; first compound 0.04 µM) of 0.37 and a relative viability (HOP-62; first compound 0.1265 µM) of 0.407. It also gave a relative viability (HOP-62; first compound 0.4 µM) of 0.412, a relative viability (HOP-62; first compound 1.265 µM) of 0.376 and a relative viability (SK-MES-1; first compound 0.04 µM) of 0.57. For the same compound, the relative viability (SK-MES-1; first compound 0.1265 µM) was 0.538, the relative viability (SK-MES-1; first compound 0.4 µM) was 0.521 and the relative viability (SK-MES-1; first compound 1.265 µM) was 0.524. The relative viability (SK-LU-1; first compound 0.04 µM) was 0.522, the relative viability (SK-LU-1; first compound 0.1265 µM) was 0.591 and the relative viability (SK-LU-1; first compound 0.4 µM) was 0.513. The relative viability (SK-LU-1; first compound 1.265 µM) was 0.37, the relative viability (LK-2; first compound 0.04 µM) was 0.73 and the relative viability (LK-2; first compound 0.1265 µM) was 0.816. For the same compound, the relative viability (LK-2; first compound 0.4 µM) was 0.599, the relative viability (LK-2; first compound 1.265 µM) was 0.781 and the relative viability (NCI-H1944; first compound 0.04 µM) was 0.405. It also gave a relative viability (NCI-H1944; first compound 0.1265 µM) of 0.437, a relative viability (NCI-H1944; first compound 0.4 µM) of 0.487 and a relative viability (NCI-H1944; first compound 1.265 µM) of 0.37. For the same compound, the relative viability (NCI-H727; first compound 0.04 µM) was 0.428, the relative viability (NCI-H727; first compound 0.1265 µM) was 0.428 and the relative viability (NCI-H727; first compound 0.4 µM) was 0.379. For the same compound, the relative viability (NCI-H727; first compound 1.265 µM) was 0.428, the relative viability (NCI-H3122; first compound 0.04 µM) was 0.196 and the relative viability (NCI-H3122; first compound 0.1265 µM) was 0.24. It also gave a relative viability (NCI-H3122; first compound 0.4 µM) of 0.253, a relative viability (NCI-H3122; first compound 1.265 µM) of 0.277 and a relative viability (LXF-289; first compound 0.04 µM) of 0.625. It also gave a relative viability (LXF-289; first compound 0.1265 µM) of 0.685, a relative viability (LXF-289; first compound 0.4 µM) of 0.666 and a relative viability (LXF-289; first compound 1.265 µM) of 0.535. It also gave a relative viability (A-427; first compound 0.04 µM) of 0.759, a relative viability (A-427; first compound 0.1265 µM) of 0.78 and a relative viability (A-427; first compound 0.4 µM) of 0.741. The relative viability (A-427; first compound 1.265 µM) was 0.584.

Reference: the supplement of paper PMC10307832
